In brackets after ≈: the same amount, converted by molar mass.
Columns and labels:
Pseudomonas aeruginosa [1] = test: Antibacterial activity against Pseudomonas aeruginosa ATCC 27853 assessed as inhibition of biofilm formation after 20 hrs by crystal-violet staining method; format: functional, organism-based; conditions: for IC50: ATCC 27853, 20 h
[2] = test system: Staphylococcus epidermidis; test: Antibacterial activity against Staphylococcus epidermidis ATCC 35547 assessed as effect on planktonic growth at 1.37 ug/ml after 20 hrs relative to control; format: functional
[3] = test system: Staphylococcus epidermidis; test: Antibacterial activity against Staphylococcus epidermidis ATCC 35547 assessed as effect on planktonic growth at 21.9 ug/ml after 20 hrs relative to control; format: functional
[4] = test system: Staphylococcus epidermidis; test: Antibacterial activity against Staphylococcus epidermidis ATCC 35547 assessed as effect on planktonic growth at 87.5 ug/ml after 20 hrs relative to control; format: functional
Streptococcus mutans [5] = test: Antibacterial activity against Streptococcus mutans ATCC 25175 assessed as effect on planktonic growth at 2.73 ug/ml after 20 hrs relative to control; format: functional
Streptococcus mutans [6] = test: Antibacterial activity against Streptococcus mutans ATCC 25175 assessed as effect on planktonic growth at 0.68 ug/ml after 20 hrs relative to control; format: functional
Pseudomonas aeruginosa [7] = test: Antibacterial activity against Pseudomonas aeruginosa ATCC 27853 assessed as effect on planktonic growth at 43.8 ug/ml after 20 hrs relative to control; format: functional
Streptococcus mutans [8] = test: Antibacterial activity against Streptococcus mutans ATCC 25175 assessed as effect on planktonic growth at 0.34 ug/ml after 20 hrs relative to control; format: functional
Pseudomonas aeruginosa [9] = test: Antibacterial activity against Pseudomonas aeruginosa ATCC 27853 assessed as effect on planktonic growth at 0.34 ug/ml after 20 hrs relative to control; format: functional
Staphylococcus aureus [10] = test: Antibacterial activity against Staphylococcus aureus ATCC 25923 assessed as effect on planktonic growth at 0.34 ug/ml after 20 hrs relative to control; format: functional
Streptococcus mutans [11] = test: Antibacterial activity against Streptococcus mutans ATCC 25175 assessed as effect on planktonic growth at 1.37 ug/ml after 20 hrs relative to control; format: functional
Pseudomonas aeruginosa [12] = test: Antibacterial activity against Pseudomonas aeruginosa ATCC 27853 assessed as effect on planktonic growth at 5.5 ug/ml after 20 hrs relative to control; format: functional
Staphylococcus aureus [13] = test: Antibacterial activity against Staphylococcus aureus ATCC 25923 assessed as effect on planktonic growth at 5.5 ug/ml after 20 hrs relative to control; format: functional
Staphylococcus aureus [14] = test: Antibacterial activity against Staphylococcus aureus ATCC 25923 assessed as effect on planktonic growth at 0.68 ug/ml after 20 hrs relative to control; format: functional
Staphylococcus aureus [15] = test: Antibacterial activity against Staphylococcus aureus ATCC 25923 assessed as effect on planktonic growth at 10.9 ug/ml after 20 hrs relative to control; format: functional
Pseudomonas aeruginosa [16] = test: Antibacterial activity against Pseudomonas aeruginosa ATCC 27853 assessed as effect on planktonic growth at 0.68 ug/ml after 20 hrs relative to control; format: functional
Pseudomonas aeruginosa [17] = test: Antibacterial activity against Pseudomonas aeruginosa ATCC 27853 assessed as effect on planktonic growth at 21.9 ug/ml after 20 hrs relative to control; format: functional
Streptococcus mutans [18] = test: Antibacterial activity against Streptococcus mutans ATCC 25175 assessed as effect on planktonic growth at 43.8 ug/ml after 20 hrs relative to control; format: functional
Staphylococcus aureus [19] = test: Antibacterial activity against Staphylococcus aureus ATCC 25923 assessed as effect on planktonic growth at 1.37 ug/ml after 20 hrs relative to control; format: functional
[20] = test system: Staphylococcus epidermidis; test: Antibacterial activity against Staphylococcus epidermidis ATCC 35547 assessed as inhibition of biofilm formation after 20 hrs by crystal-violet staining method; format: functional, organism-based; conditions: for IC50: ATCC 35547, 20 h
Pseudomonas aeruginosa [21] = test: Antibacterial activity against Pseudomonas aeruginosa ATCC 27853 assessed as effect on planktonic growth at 0.17 ug/ml after 20 hrs relative to control; format: functional
[22] = test system: Staphylococcus epidermidis; test: Antibacterial activity against Staphylococcus epidermidis ATCC 35547 assessed as effect on planktonic growth at 2.73 ug/ml after 20 hrs relative to control; format: functional
[23] = test system: Staphylococcus epidermidis; test: Antibacterial activity against Staphylococcus epidermidis ATCC 35547 assessed as effect on planktonic growth at 10.9 ug/ml after 20 hrs relative to control; format: functional
[24] = test system: Staphylococcus epidermidis; test: Antibacterial activity against Staphylococcus epidermidis ATCC 35547 assessed as effect on planktonic growth at 43.8 ug/ml after 20 hrs relative to control; format: functional
[25] = test system: Staphylococcus epidermidis; test: Antibacterial activity against Staphylococcus epidermidis ATCC 35547 assessed as effect on planktonic growth at 0.34 ug/ml after 20 hrs relative to control; format: functional
Staphylococcus aureus [26] = test: Antibacterial activity against Staphylococcus aureus ATCC 25923 assessed as effect on planktonic growth at 21.9 ug/ml after 20 hrs relative to control; format: functional
Streptococcus mutans [27] = test: Antibacterial activity against Streptococcus mutans ATCC 25175 assessed as effect on planktonic growth at 0.17 ug/ml after 20 hrs relative to control; format: functional
Streptococcus mutans [28] = test: Antibacterial activity against Streptococcus mutans ATCC 25175 assessed as effect on planktonic growth at 87.5 ug/ml after 20 hrs relative to control; format: functional
Pseudomonas aeruginosa [29] = test: Antibacterial activity against Pseudomonas aeruginosa ATCC 27853 assessed as effect on planktonic growth at 1.37 ug/ml after 20 hrs relative to control; format: functional
Staphylococcus aureus [30] = test: Antibacterial activity against Staphylococcus aureus ATCC 25923 assessed as effect on planktonic growth at 43.8 ug/ml after 20 hrs relative to control; format: functional
[31] = test system: Staphylococcus epidermidis; test: Antibacterial activity against Staphylococcus epidermidis ATCC 35547 assessed as effect on planktonic growth at 0.68 ug/ml after 20 hrs relative to control; format: functional
Staphylococcus aureus [32] = test: Antibacterial activity against Staphylococcus aureus ATCC 25923 assessed as effect on planktonic growth at 87.5 ug/ml after 20 hrs relative to control; format: functional
[33] = test system: Staphylococcus epidermidis; test: Antibacterial activity against Staphylococcus epidermidis ATCC 35547 assessed as effect on planktonic growth at 5.5 ug/ml after 20 hrs relative to control; format: functional
Streptococcus mutans [34] = test: Antibacterial activity against Streptococcus mutans ATCC 25175 assessed as effect on planktonic growth at 5.5 ug/ml after 20 hrs relative to control; format: functional
Pseudomonas aeruginosa [35] = test: Antibacterial activity against Pseudomonas aeruginosa ATCC 27853 assessed as effect on planktonic growth at 2.73 ug/ml after 20 hrs relative to control; format: functional
Pseudomonas aeruginosa [36] = test: Antibacterial activity against Pseudomonas aeruginosa ATCC 27853 assessed as effect on planktonic growth at 87.5 ug/ml after 20 hrs relative to control; format: functional
Staphylococcus aureus [37] = test: Antibacterial activity against Staphylococcus aureus ATCC 25923 assessed as effect on planktonic growth at 0.17 ug/ml after 20 hrs relative to control; format: functional
Pseudomonas aeruginosa [38] = test: Antibacterial activity against Pseudomonas aeruginosa ATCC 27853 assessed as effect on planktonic growth at 10.9 ug/ml after 20 hrs relative to control; format: functional
[39] = test system: Staphylococcus epidermidis; test: Antibacterial activity against Staphylococcus epidermidis ATCC 35547 assessed as effect on planktonic growth at 0.17 ug/ml after 20 hrs relative to control; format: functional
Streptococcus mutans [40] = test: Antibacterial activity against Streptococcus mutans ATCC 25175 assessed as effect on planktonic growth at 10.9 ug/ml after 20 hrs relative to control; format: functional
Staphylococcus aureus [41] = test: Antibacterial activity against Staphylococcus aureus ATCC 25923 assessed as effect on planktonic growth at 2.73 ug/ml after 20 hrs relative to control; format: functional
Streptococcus mutans [42] = test: Antibacterial activity against Streptococcus mutans ATCC 25175 assessed as effect on planktonic growth at 21.9 ug/ml after 20 hrs relative to control; format: functional

COc1ccc(Cl)cc1C1=C(Br)C(=O)N(CC(C)C)/C1=C/c1ccccc1Br
inhibition (Pseudomonas aeruginosa [1]): Dose-dependent effect
IC50 (Pseudomonas aeruginosa [1]): > 87.5 µg/mL
Activity [2]: -0.4%
Activity [3]: 10.6%
Activity [4]: 31.5%
Activity (Streptococcus mutans [5]): -3.3%
Activity (Streptococcus mutans [6]): -13.4%
Activity (Pseudomonas aeruginosa [7]): -14.6%
Activity (Streptococcus mutans [8]): -18.8%
Activity (Pseudomonas aeruginosa [9]): -3.9%
Activity (Staphylococcus aureus [10]): -0.7%
Activity (Streptococcus mutans [11]): -8.2%
Activity (Pseudomonas aeruginosa [12]): -5.1%
Activity (Staphylococcus aureus [13]): 0.2%
Activity (Staphylococcus aureus [14]): 3%
Activity (Staphylococcus aureus [15]): -4.6%
Activity (Pseudomonas aeruginosa [16]): -7.5%
Activity (Pseudomonas aeruginosa [17]): -14.6%
Activity (Streptococcus mutans [18]): 1.5%
Activity (Staphylococcus aureus [19]): -2.5%
inhibition [20]: Dose-dependent effect
IC50 [20]: 33.2 µg/mL (≈ 63.2 µM)
Activity (Pseudomonas aeruginosa [21]): -1.8%
Activity [22]: -3.7%
Activity [23]: -0.4%
Activity [24]: 21.8%
Activity [25]: 5.5%
Activity (Staphylococcus aureus [26]): -6.2%
Activity (Streptococcus mutans [27]): -19.5%
Activity (Streptococcus mutans [28]): 6.4%
Activity (Pseudomonas aeruginosa [29]): -5.8%
Activity (Staphylococcus aureus [30]): -4.3%
Activity [31]: -2.2%
Activity (Staphylococcus aureus [32]): 3.6%
Activity [33]: 2.7%
Activity (Streptococcus mutans [34]): 1.8%
Activity (Pseudomonas aeruginosa [35]): -5.8%
Activity (Pseudomonas aeruginosa [36]): -9.1%
Activity (Staphylococcus aureus [37]): 2.7%
Activity (Pseudomonas aeruginosa [38]): -18.1%
Activity [39]: 1.9%
Activity (Streptococcus mutans [40]): -4.3%
Activity (Staphylococcus aureus [41]): 7.5%
Activity (Streptococcus mutans [42]): 7%

COc1ccc(Br)cc1C1=C(Br)C(=O)N(CC(C)C)/C1=C/c1cccc(Cl)c1
inhibition (Pseudomonas aeruginosa [1]): Dose-dependent effect
IC50 (Pseudomonas aeruginosa [1]): > 87.5 µg/mL
Activity [2]: 1%
Activity [3]: 27.7%
Activity [4]: 70.2%
Activity (Streptococcus mutans [5]): 12.6%
Activity (Streptococcus mutans [6]): -6.5%
Activity (Pseudomonas aeruginosa [7]): -3.2%
Activity (Streptococcus mutans [8]): 7%
Activity (Pseudomonas aeruginosa [9]): -3.3%
Activity (Staphylococcus aureus [10]): -17.1%
Activity (Streptococcus mutans [11]): 15.3%
Activity (Pseudomonas aeruginosa [12]): -4%
Activity (Staphylococcus aureus [13]): -16%
Activity (Staphylococcus aureus [14]): -19.6%
Activity (Staphylococcus aureus [15]): -11.9%
Activity (Pseudomonas aeruginosa [16]): 3.4%
Activity (Pseudomonas aeruginosa [17]): -4.5%
Activity (Streptococcus mutans [18]): 2.5%
Activity (Staphylococcus aureus [19]): -17.8%
inhibition [20]: Dose-dependent effect
IC50 [20]: 46.7 µg/mL (≈ 88.8 µM)
Activity (Pseudomonas aeruginosa [21]): 1.8%
Activity [22]: 11.4%
Activity [23]: 10.8%
Activity [24]: 56.1%
Activity [25]: 4.9%
Activity (Staphylococcus aureus [26]): -13.1%
Activity (Streptococcus mutans [27]): 6%
Activity (Streptococcus mutans [28]): -7.3%
Activity (Pseudomonas aeruginosa [29]): 5%
Activity (Staphylococcus aureus [30]): -5.2%
Activity [31]: 4.8%
Activity (Staphylococcus aureus [32]): 12.8%
Activity [33]: 21.1%
Activity (Streptococcus mutans [34]): 2.8%
Activity (Pseudomonas aeruginosa [35]): 4.7%
Activity (Pseudomonas aeruginosa [36]): 15.5%
Activity (Staphylococcus aureus [37]): -18.7%
Activity (Pseudomonas aeruginosa [38]): -7%
Activity [39]: 2.1%
Activity (Streptococcus mutans [40]): 8.3%
Activity (Staphylococcus aureus [41]): -14%
Activity (Streptococcus mutans [42]): -7.5%

COc1ccc(Br)cc1C1=C(Br)C(=O)N(CC(C)C)/C1=C/c1ccc(Br)cc1
inhibition (Pseudomonas aeruginosa [1]): Dose-dependent effect
IC50 (Pseudomonas aeruginosa [1]): 2.5 µg/mL (≈ 4.39 µM)
Activity [2]: -1.2%
Activity [3]: -1%
Activity [4]: 11.4%
Activity (Streptococcus mutans [5]): 12%
Activity (Streptococcus mutans [6]): 14.4%
Activity (Pseudomonas aeruginosa [7]): -6.2%
Activity (Streptococcus mutans [8]): 12%
Activity (Pseudomonas aeruginosa [9]): 2.6%
Activity (Staphylococcus aureus [10]): 6.3%
Activity (Streptococcus mutans [11]): -3.3%
Activity (Pseudomonas aeruginosa [12]): -16.1%
Activity (Staphylococcus aureus [13]): 14.9%
Activity (Staphylococcus aureus [14]): 18.5%
Activity (Staphylococcus aureus [15]): 16.8%
Activity (Pseudomonas aeruginosa [16]): -5.5%
Activity (Pseudomonas aeruginosa [17]): -11.7%
Activity (Streptococcus mutans [18]): 9%
Activity (Staphylococcus aureus [19]): 9.4%
inhibition [20]: Dose-dependent effect
IC50 [20]: > 87.5 µg/mL
Activity (Pseudomonas aeruginosa [21]): 0.9%
Activity [22]: -5.7%
Activity [23]: 1%
Activity [24]: 7.7%
Activity [25]: 0.4%
Activity (Staphylococcus aureus [26]): 27.8%
Activity (Streptococcus mutans [27]): 13.9%
Activity (Streptococcus mutans [28]): 22.8%
Activity (Pseudomonas aeruginosa [29]): -19.3%
Activity (Staphylococcus aureus [30]): 36.6%
Activity [31]: -2.1%
Activity (Staphylococcus aureus [32]): 68.6%
Activity [33]: 2.7%
Activity (Streptococcus mutans [34]): 10.1%
Activity (Pseudomonas aeruginosa [35]): -17.1%
Activity (Pseudomonas aeruginosa [36]): -8.2%
Activity (Staphylococcus aureus [37]): 2.2%
Activity (Pseudomonas aeruginosa [38]): -15.5%
Activity [39]: -3.3%
Activity (Streptococcus mutans [40]): 7.6%
Activity (Staphylococcus aureus [41]): 15.4%
Activity (Streptococcus mutans [42]): 6%
